Data published in US11584769B2, “Diterpene glycosides, compositions and purification methods” (The Coca-Cola Company, priority 2014, dated 2023).

Tests used:
panelists = test: Sensory evaluation of 1 and 3 (single sip protocol, taste panel); format: in vivo, human; settings: 400 ppm in water, 4° C.; for Bitter Aftertaste Intensity / Sweet Linter Intensity / Other Intensity / Overall Max Bitterness Intensity / Overall Max Sweetness Intensity / Bitter Intensity (In mouth) / Sweet Intensity (In mouth): mean score; for Bitter Aftertaste Intensity / Sweet Linter Intensity: 1 minute after tasting; for Other Intensity: any aromatic other than sweet and bitter or mouthfeel; for Overall Max Bitterness Intensity / Overall Max Sweetness Intensity: up to 1 minute
Method: Samples were prepared as described in Table 1. All samples were served at 4° C.
Samples were evaluated using a single sip protocol as follows: • Samples were served at approximately 4° C. • Panelists were instructed to take 1 sip of the sample, hold in mouth for 5 seconds, expectorate comfortable with this), and rate the given attributes • A 5 minute break was placed between each sample and panelists were instructed to cleanse their palates with at least 1 bite of unsalted cracker and 2 sips of filtered water • Due to limited sample quantities, panelists were given the following amounts to test: • a 3 vs Reb M: 1.5 mL • 1 vs Reb M: 5 mL • Samples were randomized within each session for each panelist • All samples were presented in replicate in each session Samples were evaluated for: • Sweet taste intensity: maximum level of sweetness in mouth during 5 seconds • Bitter taste intensity: maximum level of bitterness in mouth during 5 seconds • Overall maximum sweet intensity: maximum sweet intensity experienced from the time the sip is taken up to 1 minute • Overall maximum bitter intensity: maximum […] intensity experienced from the time the sip is taken up to 1 minute • Other intensity: Intensity of any aromatic other than sweet and bitter (metallic, plastic, licorice, etc.) or mouthfeel/sensation • Sweet linger intensity: sweet intensity 1 minute after tasting the sample • Bitter aftertaste intensity: bitter intensity 1 minute after tasting the sample Data Analysis. A 3-way ANOVA was used to compare the sweeteners for each attribute, for 1 only, and significance was determined at p<0.05. Fishers's LSD was used to determine significant differences between mean scores.

[1] = Solubility observed when preparing NMR samples (solvent screen); format: physicochemical; settings: for Dissolution of the sample in 250 μL of CD3OD: ~4.3 mg (4, CD3OD+TMS) or 3.8 mg (6) in 250 μL
Method: Isolation Procedure. Fractions collected during the final pre-concentration step were filtered through a stainless steel sieve and concentrated in vacuo using a Buchi® Rotary Evaporator, Model R-114. The concentrated solution was dried for 48-72 h using the Kinetics Flexi-Dry Personal Freeze Dryer, followed by vacuum oven drying at 37° C. for 24 h to remove residual moisture. MS and MS/MS. MS and MS/MS data were generated with a Waters QTof Micro mass spectrometer equipped with an electrospray ionization source. The sample was analyzed by negative ESI. The sample was diluted to a concentration of 0.1 mg/mL with H2O:MeCN (1:1) and introduced via flow injection for MS data acquisition, tuned for MS/MS and acquired by direct infusion. NMR. […] The ^1H, COSY, HSQC-DEPT and NOESY NMR data were acquired on Bruker Avance 500 MHz instruments with either a 2.5 mm inverse probe or a 5 mm broad band probe. The ^13C and HMBC NMR data were acquired at the Rensselaer Polytechnic Institute using their Bruker Avance 600 MHz instrument with a 5 mm cryo-probe. The ^1H and ^13C NMR spectra were referenced to the TMS resonance at δH 0.00 ppm and CD3OD resonance at 49.0 ppm, respectively. […] The sample was recovered and blown dry under nitrogen or lyophilized between each solvent screen]. Results and Discussion Unless otherwise noted, all solvent ratios are listed as percent by volume (v/v). Primary Purification. Approximately 300 g of Lot #CB-2977-171 was processed using the primary preparative HPLC method described above. […] Fraction 3 (Lot #JAM-D-10-3) contained the target of interest. Secondary Purification. Lot #JAM-D-10-3 (and equivalent lots) was reprocessed with conditions summarized above. […] Tertiary Purification. Fraction Lot #JAM-D-40-2 was reprocessed with conditions summarized above. Fractions with low level m/z 1776 targets were collected as CJP-C-128 (3, 4, 5, 7). These fractions were subsequently pooled to enhance signal strength for additional processing. Quaternary Purification. Fraction Lot #CJP-C-128 (3, 4, 5, 7) (and equivalent lots) were reprocessed with conditions summarized above. Fraction 1, Lot #CJP-C-130(1), was isolated for additional processing. Quinary Purification. Fraction Lot #CJP-C-130(1) (and equivalent lots) were reprocessed with conditions summarized above. Fraction 9, Lot #CJP-C-133(9), was isolated. […] Secondary Purification. Fraction Lot #CJP-C-133(9) was reprocessed with conditions summarized above. Final Batch Preparation. The purified solution was filtered through a stainless steel sieve to remove particulates. The solution was then concentrated by rotary evaporation and lyophilized for about 72 h. The final batch (4.3 mg), was isolated with >99% (AUC, CAD) purity. Mass Spectrometry. […]

[2] = 1 vs Reb M session, 5 mL sip, N=6
[3] = 3 vs Reb M session, 1.5 mL sip, N=3

SMILES | Bitter Aftertaste Intensity (panelists; [2]) | Sweet Linter Intensity (panelists; [2]) | Bitter Aftertaste Intensity (panelists; [3]) | Sweet Linter Intensity (panelists; [3]) | Other Intensity (panelists; [2]) | Other Intensity (panelists; [3]) | Overall Max Bitterness Intensity (panelists; [2]) | Overall Max Sweetness Intensity (panelists; [2]) | Overall Max Bitterness Intensity (panelists; [3]) | Overall Max Sweetness Intensity (panelists; [3]) | Bitter Intensity (In mouth) (panelists; [2]) | Sweet Intensity (In mouth) (panelists; [2]) | Bitter Intensity (In mouth) (panelists; [3]) | Sweet Intensity (In mouth) (panelists; [3]) | Overall Max Sweetness compared to Reb M (panelists) | Sweet Intensity in Mouth compared to Reb M (panelists) | Sweet Linger Intensity compared to Reb M (panelists) | Solubility in solvent screen ([1]; pyridine-d5+TMS (~4 mg/170 μL), D2O+TSP (~4 mg/170 μL), DMSO-d6+TMS) | Dissolution of the sample in 250 μL of CD3OD [1] | Soluble portion of the sample in CD3OD+TMS ([1]; ~4.3 mg of sample in 250 μL of CD3OD+TMS) [mg/250 μL]
C=C1C[C@@]23CC[C@H]4[C@@](C)(CCC[C@@]4(C)C(=O)O[C@@H]4O[C@H](CO)[C@@H](O)[C@H](O[C@@H]5O[C@H](CO)[C@@H](O)[C@H](O)[C@H]5O)[C@H]4O[C@@H]4O[C@H](CO)[C@@H](O)[C@H](O)[C@H]4O)[C@@H]2CC[C@]1(O[C@@H]1O[C@H](CO)[C@@H](O)[C@H](O[C@@H]2O[C@H](CO)[C@@H](O)[C@H](O)[C@H]2O)[C@H]1O[C@@H]1O[C@H](CO)[C@@H](O)[C@H](O)[C@H]1O)C3 [Reb M, rebaudioside M, reference compound] | 0.5 | 3.6 | 0.3 | 2.5 | 0.8 | 0.3 | 0.8 | 8.4 | 1.4 | 6.3 | 0.7 | 7.8 | 0.4 | 7.4 |  |  |  |  |  | 
C=C1C[C@@]23CC[C@H]4[C@@](C)(CCC[C@@]4(C)C(=O)OC4OC(CO)C(O)C(OC5OC(CO)C(O)C(O)C5O)C4OC4OC(CO)C(O)C(O)C4O)[C@@H]2CCC1(OC1OC(CO)C(O)C(OC2OC(CO)C(O)C(O)C2O)C1OC1OC(COC2OC(CO)C(O)C(OC4OC(CO)C(O)C(O)C4O)C2OC2OC(CO)C(O)C(O)C2O)C(O)C(O)C1O)C3 (stereo partly shown) [diterpene glycoside 1] | 0.8 | 0.0 |  |  | 1 |  | 0.8 | 1.1 |  |  | 0.7 |  |  |  | significantly lower | significantly lower | significantly lower |  |  | 
C=C1C[C@@]23CC[C@H]4[C@@](C)(CCC[C@@]4(C)C(=O)OC4OC(COC5OC(CO)C(O)C(OC6OC(CO)C(O)C(O)C6O)C5OC5OC(CO)C(O)C(O)C5O)C(O)C(OC5OC(CO)C(O)C(O)C5O)C4OC4OC(CO)C(O)C(O)C4O)[C@@H]2CCC1(OC1OC(CO)C(O)C(OC2OC(CO)C(O)C(O)C2O)C1OC1OC(CO)C(O)C(O)C1O)C3 (stereo partly drawn) [diterpene glycoside 3, (13-[(2-O-β-D-glucopyranosyl-3-O-β-D-glucopyranosyl)-β-D-glucopyranosyl)oxy] ent-kaur-16-en-19-oic acid-[(2-O-β-D-glucopyranosyl-3-O-β-D-glucopyranosyl-6-O-α-D-glucopyranosyl-(2-O-β-D-glucopyranosyl-3-O-β-D-glucopyranosyl)-β-D-glucopyranosyl) ester]] |  |  | 0.3 | 0.9 |  | 0.5 |  |  | 1.3 | 5.6 |  |  | 0.3 | 5.4 | slightly lower | slightly lower | significantly less |  |  | 
C=C1C[C@@]23CC[C@H]4[C@@](C)(CCC[C@@]4(C)C(=O)OC4OC(CO)C(O)C(OC5OC(CO)C(O)C(O)C5O)C4OC4OC(CO)C(O)C(OC5OC(CO)C(O)C(OC6OC(CO)C(O)C(O)C6O)C5OC5OC(CO)C(O)C(O)C5O)C4O)[C@@H]2CCC1(OC1OC(CO)C(O)C(OC2OC(CO)C(O)C(O)C2O)C1OC1OC(CO)C(O)C(O)C1O)C3 (stereo partly shown) [diterpene glycoside 4] |  |  |  |  |  |  |  |  |  |  |  |  |  |  |  |  |  | very poor solubility | did not dissolve readily | ~1.5
C=C1C[C@@]23CC[C@H]4[C@@](C)(CCC[C@@]4(C)C(=O)OC4OC(CO)C(O)C(OC5OC(CO)C(O)C(O)C5O)C4OC4OC(COC5OC(CO)C(O)C(OC6OC(CO)C(O)C(O)C6O)C5OC5OC(CO)C(O)C(O)C5O)C(O)C(O)C4O)[C@@H]2CCC1(OC1OC(CO)C(O)C(OC2OC(CO)C(O)C(O)C2O)C1OC1OC(CO)C(O)C(O)C1O)C3 (stereo partly drawn) [diterpene glycoside 6, (13-[(2-O-β-D-glucopyranosyl-3-O-β-D-glucopyranosyl)-β-D-glucopyranosyl)oxy] ent-kaur-16-en-19-oic acid-[(2-O-β-D-glucopyranosyl-(6-O-α-D-glucopyranosyl-(2-O-β-D-glucopyranosyl-3-O-β-D-glucopyranosyl)-3-O-β-D-glucopyranosyl)-β-D-glucopyranosyl) ester]] |  |  |  |  |  |  |  |  |  |  |  |  |  |  |  |  |  |  | did not dissolve completely | 
